From ChEMBL document CHEMBL1140656, “Design, synthesis, and evaluation of 3,4-disubstituted pyrazole analogues as anti-tumor CDK inhibitors” (Bioorg Med Chem Lett, 2007)

Legend:
[1] = Inhibition of CDK1/cyclin B; design: species or system Homo sapiens
[2] = target: Receptor tyrosine-protein kinase erbB-2 (Homo sapiens, UniProt P04626); assay: Inhibition of HER2
[3] = target: Vascular endothelial growth factor receptor 2 (Homo sapiens, UniProt P35968); assay: Inhibition of VEGFR2
Aurora kinase A = target: T1, Aurora kinase A (Homo sapiens, UniProt O14965); assay: Inhibition of aurora-A
T1 sequence (O14965 whole entry): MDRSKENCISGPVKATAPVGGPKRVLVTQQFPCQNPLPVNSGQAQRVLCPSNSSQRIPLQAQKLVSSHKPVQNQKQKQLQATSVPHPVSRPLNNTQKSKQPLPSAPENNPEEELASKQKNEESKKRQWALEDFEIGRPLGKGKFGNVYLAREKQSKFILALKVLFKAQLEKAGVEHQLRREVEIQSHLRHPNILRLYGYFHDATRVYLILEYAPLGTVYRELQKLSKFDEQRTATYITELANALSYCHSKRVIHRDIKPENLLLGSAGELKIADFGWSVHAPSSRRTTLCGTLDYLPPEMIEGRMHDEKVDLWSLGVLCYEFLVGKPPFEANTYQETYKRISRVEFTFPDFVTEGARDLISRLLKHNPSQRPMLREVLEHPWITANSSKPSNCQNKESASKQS

A-375 = assay: Antiproliferative activity against human A375 cells; type: functional, cell-based
HCT-116 = assay: Antiproliferative activity against human HCT116 cells; type: functional, cell-based
HeLa = assay: Antiproliferative activity against human HeLa cells; type: functional, cell-based

Sequence of Receptor tyrosine-protein kinase erbB-2 (P04626 whole entry): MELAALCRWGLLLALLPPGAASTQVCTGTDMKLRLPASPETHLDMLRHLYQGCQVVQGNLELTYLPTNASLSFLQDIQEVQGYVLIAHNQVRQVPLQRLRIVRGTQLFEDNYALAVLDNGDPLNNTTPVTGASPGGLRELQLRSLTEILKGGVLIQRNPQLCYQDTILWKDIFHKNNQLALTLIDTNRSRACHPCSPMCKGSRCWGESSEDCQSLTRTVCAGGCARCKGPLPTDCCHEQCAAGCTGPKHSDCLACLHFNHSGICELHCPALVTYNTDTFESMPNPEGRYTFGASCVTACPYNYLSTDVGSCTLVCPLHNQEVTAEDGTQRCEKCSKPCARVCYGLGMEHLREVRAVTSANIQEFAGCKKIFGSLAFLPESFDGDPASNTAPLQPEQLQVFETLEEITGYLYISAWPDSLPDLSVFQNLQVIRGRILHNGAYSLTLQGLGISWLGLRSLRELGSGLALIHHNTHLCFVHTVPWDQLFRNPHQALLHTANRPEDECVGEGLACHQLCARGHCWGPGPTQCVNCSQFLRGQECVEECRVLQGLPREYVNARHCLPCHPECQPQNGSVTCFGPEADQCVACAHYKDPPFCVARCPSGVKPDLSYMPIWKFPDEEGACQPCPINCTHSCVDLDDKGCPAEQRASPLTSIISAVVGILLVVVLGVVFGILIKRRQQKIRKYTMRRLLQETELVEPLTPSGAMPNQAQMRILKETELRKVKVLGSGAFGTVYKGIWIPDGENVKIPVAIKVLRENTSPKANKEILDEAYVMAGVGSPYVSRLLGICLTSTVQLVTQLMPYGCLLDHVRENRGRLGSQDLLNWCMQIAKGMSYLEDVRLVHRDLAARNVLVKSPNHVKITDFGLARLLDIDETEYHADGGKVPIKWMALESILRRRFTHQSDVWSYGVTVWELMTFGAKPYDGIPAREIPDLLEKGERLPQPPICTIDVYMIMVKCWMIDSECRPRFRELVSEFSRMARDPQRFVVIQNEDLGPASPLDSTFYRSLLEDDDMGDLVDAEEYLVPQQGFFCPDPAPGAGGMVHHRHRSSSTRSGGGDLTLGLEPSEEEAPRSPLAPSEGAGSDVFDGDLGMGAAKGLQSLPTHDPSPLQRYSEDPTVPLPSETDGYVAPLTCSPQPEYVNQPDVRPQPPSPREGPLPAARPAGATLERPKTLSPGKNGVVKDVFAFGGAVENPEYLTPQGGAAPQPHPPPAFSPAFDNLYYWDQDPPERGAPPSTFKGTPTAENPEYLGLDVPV
Sequence of Vascular endothelial growth factor receptor 2 (P35968 whole entry): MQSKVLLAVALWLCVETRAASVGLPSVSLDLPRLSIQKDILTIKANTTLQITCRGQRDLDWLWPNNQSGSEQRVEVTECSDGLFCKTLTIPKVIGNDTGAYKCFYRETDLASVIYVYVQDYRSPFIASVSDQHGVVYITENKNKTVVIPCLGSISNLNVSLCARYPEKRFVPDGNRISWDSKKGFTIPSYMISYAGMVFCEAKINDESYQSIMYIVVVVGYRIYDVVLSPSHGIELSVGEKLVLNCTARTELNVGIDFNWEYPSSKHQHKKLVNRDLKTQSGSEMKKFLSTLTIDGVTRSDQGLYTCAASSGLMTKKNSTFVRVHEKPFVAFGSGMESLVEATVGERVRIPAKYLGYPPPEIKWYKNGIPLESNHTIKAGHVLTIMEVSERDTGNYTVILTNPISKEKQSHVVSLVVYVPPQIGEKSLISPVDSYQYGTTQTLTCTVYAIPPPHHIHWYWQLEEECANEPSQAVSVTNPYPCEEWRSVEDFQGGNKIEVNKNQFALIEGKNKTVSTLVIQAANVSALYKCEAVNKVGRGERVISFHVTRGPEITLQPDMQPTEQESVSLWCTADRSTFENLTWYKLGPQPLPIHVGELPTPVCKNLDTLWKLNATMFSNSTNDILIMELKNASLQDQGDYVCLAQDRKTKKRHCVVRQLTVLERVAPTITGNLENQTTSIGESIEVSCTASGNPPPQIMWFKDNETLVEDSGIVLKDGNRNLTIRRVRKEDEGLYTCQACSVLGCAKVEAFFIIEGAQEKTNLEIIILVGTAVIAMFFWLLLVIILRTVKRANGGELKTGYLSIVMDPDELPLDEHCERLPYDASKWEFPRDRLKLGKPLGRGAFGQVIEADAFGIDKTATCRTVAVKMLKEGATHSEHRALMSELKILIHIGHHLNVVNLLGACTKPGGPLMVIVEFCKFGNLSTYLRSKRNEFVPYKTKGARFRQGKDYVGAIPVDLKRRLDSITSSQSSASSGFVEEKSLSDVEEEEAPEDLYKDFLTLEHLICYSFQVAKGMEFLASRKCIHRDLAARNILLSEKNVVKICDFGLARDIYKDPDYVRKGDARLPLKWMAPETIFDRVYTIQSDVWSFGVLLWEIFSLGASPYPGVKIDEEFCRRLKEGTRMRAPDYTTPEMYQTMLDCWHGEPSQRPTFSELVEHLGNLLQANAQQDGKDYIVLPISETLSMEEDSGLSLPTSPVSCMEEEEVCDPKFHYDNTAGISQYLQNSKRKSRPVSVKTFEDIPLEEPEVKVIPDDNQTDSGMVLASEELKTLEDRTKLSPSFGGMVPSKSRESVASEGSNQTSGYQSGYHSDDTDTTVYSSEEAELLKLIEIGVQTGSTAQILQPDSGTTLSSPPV

Compound | IC50 [1] [µM] | IC50 [2] [µM] | IC50 [3] [µM] | IC50 (Aurora kinase A) [µM] | IC50 (A-375) [µM] | IC50 (HCT-116) [µM] | IC50 (HeLa) [µM]
CCNCc1cncc(/C=C/c2c[nH]nc2-c2nc(C(F)(F)F)c[nH]2)c1 | 0.018 | > 100 | 10 | > 10 | 7.4 | 1.7 | 3.2
COc1ccc2nc(-c3n[nH]cc3/C=C/c3cnccc3C)[nH]c2c1 | 0.16 | > 10 | 0.76 | 0.55 | 4.3 | 3.2 | 2.8
COc1cncc(/C=C/c2c[nH]nc2-c2nc3ccc(OC)cc3[nH]2)c1 | 0.047 |  | 0.65 | 0.4 | 0.91 | 0.75 | 0.89
CCNC(=O)c1cncc(/C=C/c2c[nH]nc2-c2nc3ccc(OC)cc3[nH]2)c1 | 0.11 |  | 1.35 | > 100 | 3.6 | 2.5 | 3.7
CCNCc1cncc(/C=C/c2c[nH]nc2-c2nc3ccc(OC)cc3[nH]2)c1 | 0.0046 |  | 0.82 | 0.59 | 0.55 | 0.19 | 0.62
FC(F)(F)c1c[nH]c(-c2n[nH]cc2/C=C/c2cccnc2)n1 | 0.48 | > 100 | 29 | 0.12 | 47 | 24 | > 10
FC(F)(F)c1c[nH]c(-c2n[nH]cc2/C=C/c2cncc3ccccc23)n1 | 0.11 |  | 3.06 | 0.3 | 5.6 | 2.9 | 3.6
CN1CCN(c2ccc3nc(-c4n[nH]cc4/C=C/c4cccnc4)[nH]c3c2)CC1 | 0.029 |  | 0.29 | > 10 | 0.86 | 0.19 | 0.46
N#Cc1c[nH]c(-c2n[nH]cc2/C=C/c2cccnc2)n1 | 0.7 | > 100 | > 10 | > 10 | > 10 | 70.7 | > 10
COc1ccc2nc(-c3n[nH]cc3/C=C/c3cncc4ccccc34)[nH]c2c1 | 0.15 | > 100 | 0.61 | 0.53 | 3 | 2.7 | 2.8
COc1ccc2nc(-c3n[nH]cc3/C=C/c3cncc(C#N)c3)[nH]c2c1 | > 1 | > 100 | 1.7 | 4.2 |  |  | 
COC(=O)c1cncc(/C=C/c2c[nH]nc2-c2nc3ccc(OC)cc3[nH]2)c1 | 0.89 | > 100 | 1.28 | > 100 | 3.1 | 3.1 | 4.4
COc1ccc2nc(-c3n[nH]cc3/C=C/c3cccnc3)[nH]c2c1 | 0.033 | > 10 | 0.97 | 0.51 | 2.5 | 2.2 | 1.8
